According to patent publication US11168073B2, “3,3-difluoroallylamines or salts thereof and pharmaceutical compositions comprising the same” (YUHAN CORPORATION, priority 2018, dated 2021):
Counter-ions that a name gives are not always drawn. Like-named read-outs stand apart in the source and are kept apart here.

Columns and labels:
Assay type in all cases: biochemical
recombinant human VAP-1 = molecular target: T1, recombinant human VAP-1 (Homo sapiens, UniProt Q16853); test: Activity evaluation on recombinant human VAP-1 (Amplex Red/HRP-coupled hydrogen peroxide assay, benzylamine substrate); conditions: read-out: Inhibitory Activity (IC50, nM) human VAP-1
T1 construct: purchased R&D systems
T1 sequence (Q16853 1-763): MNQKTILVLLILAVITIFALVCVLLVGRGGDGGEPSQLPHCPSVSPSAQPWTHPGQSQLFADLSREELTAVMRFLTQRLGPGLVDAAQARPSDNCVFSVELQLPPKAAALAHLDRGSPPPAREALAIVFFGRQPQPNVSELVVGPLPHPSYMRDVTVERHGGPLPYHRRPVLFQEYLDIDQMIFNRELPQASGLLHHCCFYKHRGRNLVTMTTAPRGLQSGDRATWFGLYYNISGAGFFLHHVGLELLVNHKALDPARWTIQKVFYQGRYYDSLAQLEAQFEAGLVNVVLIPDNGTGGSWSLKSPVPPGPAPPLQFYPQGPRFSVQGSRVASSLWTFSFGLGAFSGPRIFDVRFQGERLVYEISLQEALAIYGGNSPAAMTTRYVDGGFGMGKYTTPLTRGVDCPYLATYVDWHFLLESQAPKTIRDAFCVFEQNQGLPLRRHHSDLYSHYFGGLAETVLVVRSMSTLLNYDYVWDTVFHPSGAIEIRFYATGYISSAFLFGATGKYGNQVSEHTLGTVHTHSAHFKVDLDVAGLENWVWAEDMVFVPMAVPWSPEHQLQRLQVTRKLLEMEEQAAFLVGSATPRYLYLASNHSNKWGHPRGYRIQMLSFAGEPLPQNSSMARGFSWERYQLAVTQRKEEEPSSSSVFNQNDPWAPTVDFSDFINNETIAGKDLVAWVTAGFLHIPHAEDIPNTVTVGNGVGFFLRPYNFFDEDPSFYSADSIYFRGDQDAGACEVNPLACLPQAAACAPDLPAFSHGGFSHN
Procedure, shortened: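 Recombinant human VAP-1 in 50 mM sodium phosphate pH 7.4 preincubated 30 min at 37 °C with compound (8-point 1:3 series, <1% DMSO), then 1 mM benzylamine, 200 uM Amplex Red, 1 U/mL HRP added. H2O2-derived resorufin fluorescence (ex 544/em 590) followed 1–2 h; IC50 from four-parameter fit of rate inhibition.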

[1] = molecular target: T2, recombinant human MAO-A (monoamine oxidase-A) (Homo sapiens, UniProt P21397); test: Activity evaluation on recombinant human MAO-A (Amplex Red/HRP-coupled assay, 0.5 mM tyramine substrate); conditions: read-out: Inhibitory Activity (IC50, nM) MAO-A
T2 construct: purchased Sigma-Aldrich
T2 sequence (P21397 1-527): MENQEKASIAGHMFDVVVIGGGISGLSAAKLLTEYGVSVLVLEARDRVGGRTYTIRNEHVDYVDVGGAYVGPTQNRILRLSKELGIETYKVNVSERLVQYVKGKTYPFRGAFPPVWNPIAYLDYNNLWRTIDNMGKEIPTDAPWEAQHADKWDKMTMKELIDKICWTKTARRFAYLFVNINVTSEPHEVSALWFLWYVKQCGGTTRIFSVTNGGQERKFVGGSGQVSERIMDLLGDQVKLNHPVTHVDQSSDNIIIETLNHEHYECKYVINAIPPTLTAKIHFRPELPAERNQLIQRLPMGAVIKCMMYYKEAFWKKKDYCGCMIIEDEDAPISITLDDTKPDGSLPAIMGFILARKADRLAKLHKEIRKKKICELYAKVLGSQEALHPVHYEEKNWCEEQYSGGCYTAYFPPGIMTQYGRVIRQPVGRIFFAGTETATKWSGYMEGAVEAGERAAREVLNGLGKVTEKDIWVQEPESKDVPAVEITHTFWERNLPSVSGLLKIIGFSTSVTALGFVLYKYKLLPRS
Procedure, shortened: (§1)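 Compounds preincubated 30 min at 37 °C with enzyme in 50 mM sodium phosphate pH 7.4 (final DMSO <1%, 8-point 1:3 dilutions); reaction started with 200 uM Amplex Red, 1 U/mL HRP and substrate (MAO-A 0.5 mM tyramine, MAO-B 1 mM benzylamine, DAO 1 mM putrescine). Resorufin fluorescence (ex 544/em 590 nm) followed over 1-2 h; IC50 from four-parameter logistic fit.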

[2] = molecular target: T3, recombinant human MAO-B (monoamine oxidase-B) (Homo sapiens, UniProt P27338); test: Activity evaluation on recombinant human MAO-B (Amplex Red/HRP-coupled assay, 1 mM benzylamine substrate); conditions: read-out: Inhibitory Activity (IC50, nM) MAO-B
T3 construct: purchased Sigma-Aldrich
T3 sequence (P27338 1-520): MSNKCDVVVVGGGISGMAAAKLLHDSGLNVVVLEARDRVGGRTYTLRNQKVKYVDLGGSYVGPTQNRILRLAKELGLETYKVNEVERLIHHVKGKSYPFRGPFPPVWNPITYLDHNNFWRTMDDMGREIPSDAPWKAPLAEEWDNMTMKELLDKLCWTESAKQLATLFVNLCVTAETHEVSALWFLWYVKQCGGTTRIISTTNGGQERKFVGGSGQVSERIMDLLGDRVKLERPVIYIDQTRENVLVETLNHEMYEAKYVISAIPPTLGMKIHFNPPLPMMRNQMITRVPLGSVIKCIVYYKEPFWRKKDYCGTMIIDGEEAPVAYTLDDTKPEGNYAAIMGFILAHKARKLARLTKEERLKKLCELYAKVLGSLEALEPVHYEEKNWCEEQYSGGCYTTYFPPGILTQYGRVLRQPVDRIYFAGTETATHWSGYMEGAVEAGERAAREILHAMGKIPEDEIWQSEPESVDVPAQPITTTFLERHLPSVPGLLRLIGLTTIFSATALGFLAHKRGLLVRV
Procedure, shortened: as §1

[3] = molecular target: T4, recombinant human DAO (diamine oxidase) (Homo sapiens, UniProt P19801); test: Activity evaluation on recombinant human DAO (Amplex Red/HRP-coupled assay, 1 mM putrescine substrate); conditions: read-out: Inhibitory Activity (IC50, nM) DAO
T4 construct: purchased R&D systems
T4 sequence (P19801 20-751): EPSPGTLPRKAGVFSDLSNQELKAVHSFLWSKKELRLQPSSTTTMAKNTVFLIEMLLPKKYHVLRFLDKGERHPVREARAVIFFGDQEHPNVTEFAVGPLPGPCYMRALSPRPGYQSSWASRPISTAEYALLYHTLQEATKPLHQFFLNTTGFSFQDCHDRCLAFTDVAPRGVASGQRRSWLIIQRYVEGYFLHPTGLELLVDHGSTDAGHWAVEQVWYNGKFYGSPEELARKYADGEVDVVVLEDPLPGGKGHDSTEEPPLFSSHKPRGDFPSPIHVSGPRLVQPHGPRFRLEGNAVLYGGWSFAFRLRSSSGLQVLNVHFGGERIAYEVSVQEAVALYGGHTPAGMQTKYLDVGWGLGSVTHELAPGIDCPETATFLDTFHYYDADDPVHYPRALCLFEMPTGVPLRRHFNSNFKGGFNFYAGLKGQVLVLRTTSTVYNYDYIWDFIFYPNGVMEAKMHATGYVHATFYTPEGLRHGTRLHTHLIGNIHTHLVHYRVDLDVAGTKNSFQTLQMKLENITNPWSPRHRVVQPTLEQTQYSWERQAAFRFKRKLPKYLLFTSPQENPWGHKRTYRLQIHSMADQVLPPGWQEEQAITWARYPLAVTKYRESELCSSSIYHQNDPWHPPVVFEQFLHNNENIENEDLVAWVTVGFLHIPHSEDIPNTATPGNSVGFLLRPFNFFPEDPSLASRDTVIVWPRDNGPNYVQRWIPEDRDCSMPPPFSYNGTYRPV
Procedure, shortened: as §1

[4] = recombinant human VAP-1, 30 min preincubation at 37° C., 1 mM benzylamine
[5] = recombinant human VAP-1, benzylamine substrate

IC50 (recombinant human VAP-1; [4]) | IC50 ([1]; 0.5 mM tyramine) | IC50 ([2]; 1 mM benzylamine) | IC50 ([3]; 1 mM putrescine) | IC50 (recombinant human VAP-1; [5]) | IC50 ([1]; 0.5 mM tyramine substrate) | IC50 ([2]; 1 mM benzylamine substrate) | IC50 ([3]; 1 mM putrescine substrate) | Structure (SMILES)
1.5 nM | > 100000 nM | 15600 nM | 5090 nM |  |  |  |  | Cn1cc(C#Cc2cccc(-n3cnn(CC(CN)=C(F)F)c3=O)n2)cn1 [Example 160, 2-[2-(aminomethyl)-3,3-difluoro-allyl]-4-[6-[2-(1-methylpyrazol-4-yl)ethynyl]-2-pyridyl]-1,2,4-triazol-3-one trifluoroacetate]
 |  |  |  | 2.5 nM | > 100000 nM | > 100000 nM | 1300 nM | NCC(Cn1ncn(-c2cccc(-c3ccc(N4CCNCC4)nc3)n2)c1=O)=C(F)F [Example 213, 2-[2-(aminomethyl)-3,3-difluoro-allyl]-4-[6-(6-piperazin-1-yl-3-pyridyl)-2-pyridyl]-1,2,4-triazol-3-one Ditrifluoroacetate]
1 nM | > 100000 nM | 31000 nM | 61 nM |  |  |  |  | NCC(Cn1ncn(-c2cccc(-c3ccc(C(F)(F)F)nc3)n2)c1=O)=C(F)F [Example 48, 2-[2-(aminomethyl)-3,3-difluoro-allyl]-4-[6-[6-(trifluoromethyl)-3-pyridyl]-2-pyridyl]-1,2,4-triazol-3-one Trifluoroacetate]
0.7 nM | > 100000 nM | > 100000 nM | 20000 nM |  |  |  |  | CCn1cc(-c2cnc(-n3cnn(CC(CN)=C(F)F)c3=O)c(C)c2)cn1 [Example 75, 2-[2-(aminomethyl)-3,3-difluoro-allyl]-4-[5-(1-ethylpyrazol-4-yl)-3-methyl-2-pyridyl]-1,2,4-triazol-3-one Trifluoroacetate]
1.5 nM | > 100000 nM | 13000 nM | 1200 nM |  |  |  |  | NCC(Cn1ncn(-c2cccc(-c3ccc4c(c3)OCO4)n2)c1=O)=C(F)F [Example 50, 2-[2-(aminomethyl)-3,3-difluoro-allyl]-4-[6-(1,3-benzodioxol-5-yl)-2-pyridyl]-1,2,4-triazol-3-one Trifluoroacetate]

More lines, now with the values behind:

Structure (SMILES) | IC50 (recombinant human VAP-1; [4]) | IC50 ([1]; 0.5 mM tyramine) | IC50 ([2]; 1 mM benzylamine) | IC50 ([3]; 1 mM putrescine) | IC50 (recombinant human VAP-1; [5]) | IC50 ([1]; 0.5 mM tyramine substrate) | IC50 ([2]; 1 mM benzylamine substrate) | IC50 ([3]; 1 mM putrescine substrate)
Cc1cc(-c2ccc(CCn3cnn(CC(CN)=C(F)F)c3=O)s2)cc2c1NC(=O)CC2 [Example 178, 6-[5-[2-[1-[2-(aminomethyl)-3,3-difluoro-allyl]-5-oxo-1,2,4-triazol-4-yl]ethyl]-2-thienyl]-8-methyl-3,4-dihydro-1H-quinolin-2-one Trifluoroacetate] | 0.6 nM | > 100000 nM | > 100000 nM | 350 nM |  |  |  | 
Cc1cc(-c2cccc(Cn3cnn(CC(CN)=C(F)F)c3=O)c2)cc2c1NC(=O)CC2 [Example 275, 6-[3-[[1-[2-(aminomethyl)-3,3-difluoro-allyl]-5-oxo-1,2,4-triazol-4-yl]methyl]phenyl]-8-methyl-3,4-dihydro-1H-quinolin-2-one Trifluoroacetate] |  |  |  |  | 0.9 nM | > 100000 nM | 25400 nM | 5160 nM
CCn1cc(-c2cccc(-c3csc(Cn4cnn(CC(CN)=C(F)F)c4=O)c3)c2)cn1 [Example 289, 2-[2-(aminomethyl)-3,3-difluoro-allyl]-4-[[4-[3-(1-ethylpyrazol-4-yl)phenyl]-2-thienyl]methyl]-1,2,4-triazol-3-one Trifluoroacetate] |  |  |  |  | 0.6 nM | > 100000 nM | 12000 nM | 14500 nM
Cc1cc(Br)sc1Cn1cnn(CC(CN)=C(F)F)c1=O [Example 99, 2-[2-(aminomethyl)-3,3-difluoro-allyl]-4-[(5-bromo-3-methyl-2-thienyl)methyl]-1,2,4-triazol-3-one Trifluoroacetate] | 9.3 nM | > 100000 nM | 21000 nM | > 100000 nM |  |  |  | 
Cc1cc(Br)ncc1-n1cnn(CC(CN)=C(F)F)c1=O [Example 12, 2-[2-(aminomethyl)-3,3-difluoro-allyl]-4-(6-bromo-4-methyl-3-pyridyl)-1,2,4-triazol-3-one Trifluoroacetate] | 43 nM | > 100000 nM | > 10000 nM | 55000 nM |  |  |  | 
CS(=O)(=O)c1ccc(-c2ccc(CCn3cnn(CC(CN)=C(F)F)c3=O)s2)cc1 [Example 173, 2-[2-(aminomethyl)-3,3-difluoro-allyl]-4-[2-[5-(4-methylsulfonylphenyl)-2-thienyl]ethyl]-1,2,4-triazol-3-one trifluoroacetate] | 0.3 nM | > 100000 nM | 69000 nM | 260 nM |  |  |  | 
NCC(Cn1ncn(CCc2ccc(-c3ccc(N4CCNCC4)cc3)s2)c1=O)=C(F)F [Example 174, 2-[2-(aminomethyl)-3,3-difluoro-allyl]-4-[2-[5-(4-piperazin-1-ylphenyl)-2-thienyl]ethyl]-1,2,4-triazol-3-one Ditrifluoroacetate] | 1.3 nM | > 100000 nM | > 100000 nM | 29 nM |  |  |  | 
Cn1cc(-c2ccc(Cn3cnn(CC(CN)=C(F)F)c3=O)s2)cn1 [Example 296, 2-[2-(aminomethyl)-3,3-difluoro-allyl]-4-[[5-(1-methylpyrazol-4-yl)-2-thienyl]methyl]-1,2,4-triazol-3-one Trifluoroacetate] |  |  |  |  | 1 nM | > 100000 nM | > 100000 nM | > 100000 nM
